Patent US5026694A, “Platinum complexes with one radiosensitizing ligand” (priority 1989, dated 1991)

What was measured:
[1] = system: L1210 cells, cDDP resistant line; test: Toxicity in cisDDP-resistant L1210 cells (cross-resistance); format: cell-based; conditions: L1210, cDDP resistant line; read-out: ID50 (the source's name)
Text: (§1) Patients become resistant to cisplatin (cisDDP) and to many related drugs.

KHT tumor model = conditions: 200 mg/kg, 0.5 or 1 hour prior to X-irradiation; FIG. 6
[2] = system: L1210 cells, cDDP sensitive line; test: Toxicity in cisDDP-sensitive L1210 cells; format: cell-based; conditions: listed as trans mono MISO, read-out: ID50 (the source's name)
Text: as §1

[3] = system: Chinese hamster ovary (CHO) cells; test: Toxicity in hypoxic and aerated CHO cells (plating efficiency/survival); format: cell-based
Description: The toxicity of the invention compounds with respect to Chinese hamster ovary (CHO) cells was compared in air and in nitrogen induced hypoxia as described by Moore, B. A., et al, Radiation Research (1976) 67:459-478. The radiosensitizing ligands, or cis or transdichlorodiamine platinum II (DDP) or the . bisubstituted platinum complexes, PtCl2 (L)2, were used as controls.
The cells were carried in MEM a medium with 10% fetal calf serum, and plating efficiencies were determined on the seventh day after plating.
In similar experiments at 100 mM/dm^3, MISO and trans-[PtCl2 (miso)2 ] show no toxicity. Survival rates for trans-DDP and monoammine were 0.2 and 0.1 respectively.
Using 100 mM levels, mono-6NQ caused plating efficiency to drop to 0 after an hour, while 6NQ had no effect after 3 hours.

hypoxic cells = conditions: Teicher et al; cited from earlier work

Compound	IC50 [1]	radiosensitization in vivo (KHT tumor model)	IC50 [2]	toxicity compared with other isomer ([3]; 100 mM/dm^3, FIG. 1)	approximate order of hypoxic toxicity of platinum complexes ([3]; hypoxia)	killing of hypoxic cells / toxicity toward oxygenated cells (hypoxic cells)
COCC(O)Cn1cc[n+]([Pt-2]([NH3+])([Cl])[Cl])c1[N+](=O)[O-] (stereo not drawn) [trans-mono-MISO, PtCl2 (NH3) (misonidazole)]	18.6 mM	enhance the effect of the X-rays	6.5 mM	trans isomer is more toxic than cis	cis-DDP ff trans-mono-MISO f monoammine Z cis-mono-MISO f trans-DDP f mono-METRO Z mono-NI f mono-ANT	–
mono-substituted platinum complex of 1,2-diamino-4-nitrobenzene [Plato]	–	–	–	–	–	high capacity for killing of hypoxic cells and less toxicity toward oxygenated cells
